Here are results for 6 compounds from publication PMC8151276, “An Integrated Approach toward NanoBRET Tracers for Analysis of GPCR Ligand Engagement” (Molecules, 2021).

Common to all, as to assay type: binding
Assay [1] deals with T1, CCR1 (Homo sapiens, UniProt P32246).
T1 construct: purchased Promega (in-house HiBiT-GPCR construct library, NanoBRET)
T1 sequence (P32246 1-355): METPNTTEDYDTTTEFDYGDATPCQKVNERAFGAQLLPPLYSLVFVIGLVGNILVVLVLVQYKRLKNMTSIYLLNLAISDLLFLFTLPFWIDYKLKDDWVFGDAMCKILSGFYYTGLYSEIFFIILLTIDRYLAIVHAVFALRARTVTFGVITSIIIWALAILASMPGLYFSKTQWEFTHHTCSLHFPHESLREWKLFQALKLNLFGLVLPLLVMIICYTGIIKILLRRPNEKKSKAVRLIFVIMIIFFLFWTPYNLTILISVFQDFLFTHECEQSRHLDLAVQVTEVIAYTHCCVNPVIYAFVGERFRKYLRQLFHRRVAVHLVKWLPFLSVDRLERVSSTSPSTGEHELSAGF
The assay is described as follows: NanoBRET screen HiBiT-CCR1 in HEK293. As to the method:
(§1) Each tracer candidate was screened across the entire library of HiBiT-GPCR constructs using NanoBRET as the detection modality. As depicted in Figure 4A, the specificity of interactions was evaluated through decrease in BRET due to competitive displacement of a bound tracer by excess parental compound. Each tracer was analyzed for binding to each HiBiT-GPCR fusion in the absence and in the presence of competing parental compound. Briefly, HEK293 cells were transfected with HiBiT-GPCR constructs diluted into promoterless DNA to reduce expression and maximize translocation to the cell surface. Each tracer candidate was then screened at concentrations of 1 μM and 0.1 μM across cells expressing these fusions. Cells were treated for 1.5 h with tracer either alone or in the presence of 20 μM competing parental compound (i.e., control). BRET was measured upon addition of purified LgBiT and subsequent complementation with HiBiT genetically fused to a GPCR. The specificity of interactions was assessed through a decrease in BRET signal due to competitive displacement of the bound tracer. To further gauge the robustness of these interactions, the fold response over the control (i.e., BRETtracer/BRETcontrol) was calculated. We chose a 1.5-fold response, which translates to ≥7-fold signal over noise as the minimal threshold required to score an interaction as positive. […]. Below we highlight the screening results obtained for our exemplary fluorescent tracers based on Clozapine, Amitriptyline and AZD1283.
(§2) HiBiT-GPCR DNA constructs were diluted in 10 mM Tris pH 8 to a final concentration of 0.01 μg/μL, arrayed in 96-well plates and stored at −20 °C. For transfection, HEK293 cells were suspended in Opti-MEM (without phenol red) supplemented with 2% fetal bovine serum (Seradigm) and 100 units/mL penicillin–streptomycin (Gibco) at a final concentration of 220,000 cells/mL and dispensed into white 96-well plates at 90 μL/well. Subsequent transfections and screens were carried using an Agilent Bravo Automated Liquid Handling Platform. First, the 96-well HiBiT DNA arrays were diluted 25-fold in Opti-MEM (without serum or phenol red) to a final concentration of 0.0004 μg/μL and 20 μL of the diluted DNAs were transferred into new 96-well plates. Next, promoterless carrier DNA (1 μg/μL) was diluted 25-fold (0.04 μg/μL) and then dispensed into the diluted arrays at 20 μL/well. Following brief mixing, Viafect transfection reagent (Promega) diluted 16-fold into Opti-MEM was dispensed into the plates at 40 μL/well. After mixing by pipetting, plates were incubated for 10 min on the pipetting station deck. The DNA-transfection reagent complexes were then added to plates containing cells. To facilitate the screen, 10 μL of DNA-transfection reagent complexes were added in duplicates to the top 4 and bottom 4 rows, resulting in two identical 48-well arrays per plate. Plates with transfected cells were incubated for 18–20 h at 37 °C/5% CO2. A screen of each tracer across the entire library using two different concentrations requires duplicate plates of transfected cells. Depending on the number of tracers being screened, transfections can be scaled up using the same ratios. The next day, for each tracer, four 20× screening solutions in tracer dilution buffer (Promega) were prepared: two duplicates at final concentration of 20 μM and two duplicates at a final concentration of 2 μM. A competing unmodified compound was added to one of each duplicate at a final concentration of 400 μM. The four resulting solutions were diluted 4-fold in Opti-MEM without serum or phenol red to generate 5× solutions (5 µM and 0.5 µM tracer +/− 100 μM competing compound). To screen the library, a BioTek MultiFlo FX liquid dispenser was used to dispense 22.5 µL of tracer solution to the top 4 rows and 22.5 µL tracer + competing compound solution to the 4 bottom rows. Plates were briefly mixed on an orbital shaker and incubated for 1.5 h at room temperature. […]
(Bioluminescence resonance energy transfer reports proximity on the nanometre scale.)

The target in assay [2] is T2, XCR1 (Homo sapiens, UniProt P46094).
T2 construct: purchased Promega (in-house HiBiT-GPCR construct library, NanoBRET)
T2 sequence (P46094 1-333): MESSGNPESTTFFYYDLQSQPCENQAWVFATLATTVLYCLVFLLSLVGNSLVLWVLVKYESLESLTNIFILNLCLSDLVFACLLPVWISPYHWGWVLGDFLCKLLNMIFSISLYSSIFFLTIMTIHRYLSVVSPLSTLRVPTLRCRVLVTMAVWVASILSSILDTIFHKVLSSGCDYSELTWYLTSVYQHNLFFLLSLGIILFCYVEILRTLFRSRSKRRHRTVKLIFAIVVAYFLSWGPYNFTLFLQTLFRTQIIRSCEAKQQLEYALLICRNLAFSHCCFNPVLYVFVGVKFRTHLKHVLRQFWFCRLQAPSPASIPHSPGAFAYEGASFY
Briefly: NanoBRET screen HiBiT-XCR1 in HEK293. The protocol:
as §1, §2

Assay [3] has as its target T3, LHCGR (Homo sapiens, UniProt P22888).
T3 construct: purchased Promega (in-house HiBiT-GPCR construct library, NanoBRET)
The assay is described as follows: NanoBRET screen HiBiT-LHCGR in HEK293. As to the method: as §1, §2

Assay [4] deals with T4, CXCR1 (Homo sapiens, UniProt P25024).
T4 construct: purchased Promega (in-house HiBiT-GPCR construct library, NanoBRET)
T4 sequence (P25024 1-350): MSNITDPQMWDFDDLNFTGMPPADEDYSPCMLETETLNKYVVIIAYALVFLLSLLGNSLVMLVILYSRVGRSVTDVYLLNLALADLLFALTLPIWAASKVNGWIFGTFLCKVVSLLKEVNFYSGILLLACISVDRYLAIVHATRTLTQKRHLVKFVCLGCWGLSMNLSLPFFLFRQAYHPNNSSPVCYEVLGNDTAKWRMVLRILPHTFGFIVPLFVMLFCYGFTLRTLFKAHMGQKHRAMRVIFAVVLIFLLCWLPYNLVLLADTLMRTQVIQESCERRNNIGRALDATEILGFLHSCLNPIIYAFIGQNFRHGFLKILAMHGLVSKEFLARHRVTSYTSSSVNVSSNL
The assay is described as follows: NanoBRET screen HiBiT-CXCR1 in HEK293. As to the method: as §1, §2

In assay [5] the target is T5, HTR1B (Homo sapiens, UniProt P28222).
T5 construct: purchased Promega (in-house HiBiT-GPCR construct library, NanoBRET)
The assay is described as follows: NanoBRET screen HiBiT-HTR1B in HEK293. As to the method: as §1, §2

Assay [6] concerns the target T6, GRM8 (Homo sapiens, UniProt O00222).
T6 construct: purchased Promega (in-house HiBiT-GPCR construct library, NanoBRET)
Briefly: NanoBRET screen HiBiT-GRM8 in HEK293. The protocol: as §1, §2

T3 sequence (P22888 27-699): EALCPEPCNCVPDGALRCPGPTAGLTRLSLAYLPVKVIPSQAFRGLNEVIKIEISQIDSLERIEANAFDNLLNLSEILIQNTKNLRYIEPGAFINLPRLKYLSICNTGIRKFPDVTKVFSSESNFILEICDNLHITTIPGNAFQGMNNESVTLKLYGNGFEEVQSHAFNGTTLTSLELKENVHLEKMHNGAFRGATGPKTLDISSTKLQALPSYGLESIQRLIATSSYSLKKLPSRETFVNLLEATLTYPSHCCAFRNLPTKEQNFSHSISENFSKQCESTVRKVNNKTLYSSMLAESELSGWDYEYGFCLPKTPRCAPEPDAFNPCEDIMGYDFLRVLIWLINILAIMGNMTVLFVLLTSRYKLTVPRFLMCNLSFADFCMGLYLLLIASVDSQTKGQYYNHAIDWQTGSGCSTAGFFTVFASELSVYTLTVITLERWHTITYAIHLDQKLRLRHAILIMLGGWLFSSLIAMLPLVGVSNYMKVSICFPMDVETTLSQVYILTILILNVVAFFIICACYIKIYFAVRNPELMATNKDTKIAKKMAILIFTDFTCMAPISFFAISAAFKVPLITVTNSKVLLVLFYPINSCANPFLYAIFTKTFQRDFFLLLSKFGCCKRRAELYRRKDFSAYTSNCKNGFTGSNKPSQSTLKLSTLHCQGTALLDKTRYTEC
T5 sequence (P28222 whole entry): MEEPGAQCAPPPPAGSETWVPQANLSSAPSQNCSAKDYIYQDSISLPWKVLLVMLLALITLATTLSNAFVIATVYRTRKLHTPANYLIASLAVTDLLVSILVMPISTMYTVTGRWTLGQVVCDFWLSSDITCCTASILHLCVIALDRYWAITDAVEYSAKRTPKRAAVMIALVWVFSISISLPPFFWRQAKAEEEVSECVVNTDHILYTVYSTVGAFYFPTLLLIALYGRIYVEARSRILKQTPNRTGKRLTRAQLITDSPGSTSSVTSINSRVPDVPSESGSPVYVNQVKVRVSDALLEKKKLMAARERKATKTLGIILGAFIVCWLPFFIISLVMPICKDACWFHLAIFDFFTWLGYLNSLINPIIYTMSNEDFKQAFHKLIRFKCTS
T6 sequence (O00222 34-908): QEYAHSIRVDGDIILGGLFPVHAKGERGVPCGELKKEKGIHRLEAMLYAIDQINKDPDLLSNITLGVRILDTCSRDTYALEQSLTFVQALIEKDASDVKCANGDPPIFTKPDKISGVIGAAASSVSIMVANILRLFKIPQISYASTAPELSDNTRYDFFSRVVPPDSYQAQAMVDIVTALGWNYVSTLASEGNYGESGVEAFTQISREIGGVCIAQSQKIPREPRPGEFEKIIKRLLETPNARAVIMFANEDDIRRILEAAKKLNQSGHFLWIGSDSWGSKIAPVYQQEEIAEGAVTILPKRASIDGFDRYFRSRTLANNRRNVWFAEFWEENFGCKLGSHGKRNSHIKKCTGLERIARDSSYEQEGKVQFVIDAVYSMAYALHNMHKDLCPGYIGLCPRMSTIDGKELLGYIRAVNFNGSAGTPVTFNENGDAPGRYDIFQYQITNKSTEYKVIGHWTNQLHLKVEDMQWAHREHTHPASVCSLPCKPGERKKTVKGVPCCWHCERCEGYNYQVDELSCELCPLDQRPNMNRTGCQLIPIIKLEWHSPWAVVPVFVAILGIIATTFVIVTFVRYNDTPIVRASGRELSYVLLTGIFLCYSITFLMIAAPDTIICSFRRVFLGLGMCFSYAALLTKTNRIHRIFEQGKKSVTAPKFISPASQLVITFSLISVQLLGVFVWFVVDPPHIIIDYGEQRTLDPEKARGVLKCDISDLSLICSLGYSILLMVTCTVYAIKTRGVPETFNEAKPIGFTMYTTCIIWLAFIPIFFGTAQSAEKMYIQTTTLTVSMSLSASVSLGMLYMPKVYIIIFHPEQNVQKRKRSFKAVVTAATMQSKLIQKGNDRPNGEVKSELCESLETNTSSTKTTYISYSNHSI

Take `O=C(CCc1ccc2n1[B-](F)(F)[N+]1=C(c3ccc[nH]3)C=CC1=C2)NCc1ccc(C(=O)NCCOCCOCCNCC(O)COc2cccc3ccccc23)cc1` (stereo not drawn) [Propranolol-3-NB590]: the “NanoBRET Fold Response” value turned out to be 1.03 in assay [1] (CCR1, 0.1μM); 0.97 in assay [1] (CCR1, 1μM); 1.02 in assay [2] (XCR1, 0.1μM); 0.97 in assay [2] (XCR1, 1μM); 1.04 in assay [3] (LHCGR, 0.1μM); 1.00 in assay [3] (LHCGR, 1μM). Also, the “NanoBRET Fold Response” value in assay [4] (CXCR1, 0.1μM) stood at 1.02; in assay [4] (CXCR1, 1μM) it was 1.00; in assay [5] (HTR1B, 0.1μM), 0.99; in assay [5] (HTR1B, 1μM), 1.06; in assay [6] (GRM8, 0.1μM) it was 0.99; in assay [6] (GRM8, 1μM) it was 1.00.

Regarding `COc1ccccc1N1CCN(CCCCN2C(=O)c3ccc(CNC(=O)CCOCCNC(=O)c4ccc(CNC(=O)CCc5ccc6n5[B-](F)(F)[N+]5=C(c7ccc[nH]7)C=CC5=C6)cc4)cc3C2=O)CC1` [NAN-190-3-NB590], the “NanoBRET Fold Response” value was determined as 1.04 in assay [1] (CCR1, tracer 0.1μM); 0.89 in assay [1] (CCR1, tracer 1μM); 1.29 in assay [2] (XCR1, tracer 0.1μM); 1.34 in assay [2] (XCR1, tracer 1μM); 0.98 in assay [3] (LHCGR, tracer 0.1μM); 1.08 in assay [3] (LHCGR, tracer 1μM). The “NanoBRET Fold Response” value in assay [4] (CXCR1, tracer 0.1μM) came to 0.93; in assay [4] (CXCR1, tracer 1μM), 0.83; in assay [5] (HTR1B, tracer 0.1μM) it was 1.38; in assay [5] (HTR1B, tracer 1μM), 1.42; in assay [6] (GRM8, tracer 0.1μM) it was 1.21; in assay [6] (GRM8, tracer 1μM), 0.96.

Turning to `O=C(CCc1ccc2n1[B-](F)(F)[N+]1=C(c3ccc[nH]3)C=CC1=C2)NCc1ccc(C(=O)NCCOCCC(=O)N[C@@H]2CC[C@@]3(O)[C@H]4Cc5ccc(O)c6c5[C@@]3(CCN4CC3CC3)[C@H]2O6)cc1` [Naltrexone-3-NB590], the “NanoBRET Fold Response” value in assay [1] (CCR1, tracer 0.1μM) is recorded as 1.03; in assay [1] (CCR1, tracer 1μM), 0.66; in assay [2] (XCR1, tracer 0.1μM), 0.97; in assay [2] (XCR1, tracer 1μM), 0.61; in assay [3] (LHCGR, tracer 0.1μM), 0.89; in assay [3] (LHCGR, tracer 1μM) it was 1.12. Moreover, the “NanoBRET Fold Response” value is 0.95 in assay [4] (CXCR1, tracer 0.1μM); 0.75 in assay [4] (CXCR1, tracer 1μM); 1.01 in assay [5] (HTR1B, tracer 0.1μM); 1.33 in assay [5] (HTR1B, tracer 1μM); 1.07 in assay [6] (GRM8, tracer 0.1μM); 0.93 in assay [6] (GRM8, tracer 1μM).

Turning to `CCOC(=O)c1cc(C#N)c(N2CCC(C(=O)NS(=O)(=O)Cc3ccccc3/C=C/C(=O)NCCNC(=O)CCc3ccc4n3[B-](F)(F)[N+]3=C(c5ccc[nH]5)C=CC3=C4)CC2)nc1C` [AZD1283-1-NB590], the “NanoBRET Fold Response” value in assay [1] (CCR1, 0.1μM) is recorded as 1.05; in assay [1] (CCR1, 1μM) it was 1.03; in assay [2] (XCR1, 0.1μM) it was 1.04; in assay [2] (XCR1, 1μM), 1.00; in assay [3] (LHCGR, 0.1μM), 1.00; in assay [3] (LHCGR, 1μM) it was 1.02. Also, the “NanoBRET Fold Response” value in assay [4] (CXCR1, 0.1μM) worked out at 1.09; in assay [4] (CXCR1, 1μM), 1.13; in assay [5] (HTR1B, 0.1μM), 0.89; in assay [5] (HTR1B, 1μM) it was 0.99; in assay [6] (GRM8, 0.1μM) it was 0.99; in assay [6] (GRM8, 1μM), 1.01.

Take `COc1ccc2[nH]c(-c3ccc(CNC(=O)CCOCCOCCOCCOCCNC(=O)CCc4ccc5n4[B-](F)(F)[N+]4=C(c6ccc[nH]6)C=CC4=C5)cc3)c(CCNC(C)=O)c2n1` [AzomelatoninICO9-2-NB590]: the “NanoBRET Fold Response” value in assay [1] (0.1μM tracer) is reported as 1.12; in assay [1] (1μM tracer), 1.21; in assay [2] (0.1μM tracer), 0.42; in assay [2] (1μM tracer) it was 0.90; in assay [3] (0.1μM tracer), 1.01; in assay [3] (1μM tracer) it was 0.88. Besides, the “NanoBRET Fold Response” value in assay [4] (0.1μM tracer) amounted to 1.06; in assay [4] (1μM tracer), 0.96; in assay [5] (0.1μM tracer), 0.92; in assay [5] (1μM tracer), 1.13; in assay [6] (0.1μM tracer) it was 0.98; in assay [6] (1μM tracer), 0.98.

`CC(C)N(CC[C@H](c1ccccc1)c1cc(CCNC(=O)CCOCCOCCOCCOCCNC(=O)CCc2ccc3n2[B-](F)(F)[N+]2=C(c4ccc[nH]4)C=CC2=C3)ccc1O)C(C)C` [Tolterodine-2-NB590]: the “NanoBRET Fold Response” value stood at 0.97 in assay [1] (CCR1, tracer 0.1μM); 0.94 in assay [1] (CCR1, tracer 1μM); 0.81 in assay [2] (XCR1, tracer 0.1μM); 1.17 in assay [2] (XCR1, tracer 1μM); 1.08 in assay [3] (LHCGR, tracer 0.1μM); 1.02 in assay [3] (LHCGR, tracer 1μM). In addition, the “NanoBRET Fold Response” value in assay [4] (CXCR1, tracer 0.1μM) is 1.27; in assay [4] (CXCR1, tracer 1μM) it was 1.06; in assay [5] (HTR1B, tracer 0.1μM), 0.79; in assay [5] (HTR1B, tracer 1μM), 1.12; in assay [6] (GRM8, tracer 0.1μM) it was 1.00; in assay [6] (GRM8, tracer 1μM), 1.31.
